Source: patent US10421782B2, “Cyclic cationic peptides with antimicrobial activity” (I.C.F. S.R.L., priority 2012, dated 2019)
Like-named read-outs stand apart in the source and are kept apart here.

Experiments:
[1] = tested on: Stenotrophomonas maltophilia ATCC 13637; experiment: Broth-microdilution test and subsequent plating on agar, Gram-negative bacteria; type: cell-based; conditions: 2 h contact at 37° C., CFU count after 24 h
Description: For each bacterial strain, 3-5 morphologically similar colonies were drawn from fresh cultures, inoculated in Brain Hearth Infusion broth liquid medium and incubated at the temperature of 37° C. under shaking at 225 r.p.m. for 3-4 h. Subsequently, the bacterial suspension was centrifuged at 1000 g for 20 min and the thus obtained pellet was resuspended in phosphate buffer 10 mM. Turbidity was measured in a spectrophotometer with absorbance at 600 nm, equivalent in the range 0.08-0.13 to a concentration of about 10^8 CFU/ml. The bacterial suspension was diluted 1:100 in phosphate buffer 10 mM, and within 30 min 50 microliters of such bacterial suspension (10^6 CFU/ml) were inoculated in each well of the microtiter plate, to obtain a final bacterial concentration of about 5×10^5 CFU/ml.
(§1) Several peptides were tested for their ability to inhibit bacterial growth in liquid culture. Fifty microliters of peptide at a concentration comprised between about 0.2 mM and 50 mM were added in 96-well U-bottom plates containing liquid growth medium and one of the following bacteria: Escherichia coli ATCC 25922, P. aeruginosa ATCC 27853, Stenotrophomonas maltophilia ATCC 13637. After 2 hour incubation at 37° C., bacteria were transferred on a solid medium. As a growth control, bacterial cultures were cultured in the absence of peptides.
The bacterial suspension was put in contact for two hours with different concentrations of the peptide at the temperature of 37° C. After incubation, 20 μl were drawn from the wells of each dilution and seeded on solid medium, agar McConkey. The inoculum was evenly distributed on the agarized medium by means of a sterile disposable loop. After incubation for 24 h at the temperature of 37° C., counting of the bacterial colonies (CFU) was performed.

[2] = tested on: Malassezia pachydermatis ATCC 14522; experiment: Broth-microdilution test and subsequent plating on agar, fungi (yeasts); type: cell-based; conditions: 2 h contact at 37° C., CFU count on agar Sabouraud
Description: The inoculum was set up by culturing Candida albicans ATCC 10231 and Malassezia pachydermatis ATCC 14522 in Czapek-Dox broth medium (DIFCO) for 48-72 h. On the assay day, the fungal culture was centrifuged at 1700×g for 15 min, the pellet was resuspended in phosphate buffer and submitted to shaking by the use of an electric vortex to disperse the fungal cell aggregates. The suspension was diluted until an optical density equal to an opacity of 0.5 on the McFarland turbidimetric scale was reached, which contains approximately 1-5×10^6 cell/ml (Branda J. A., Krantz A. Effectc of yeast on automated cell counting. Am J Clin Pathol., 2006:126, 248-254).
The peptides were tested for their ability to inhibit fungal growth. Fifty microliters of peptide at a concentration comprised between about 0.2 mM and about 50 mM were added in 96-well U-bottom plates containing phosphate buffer and one of the following fungi: Candida albicans ATCC 10231 and Malassezia pachydermatis ATCC 14522. After 2 h incubation at 37° C., fungi were transferred on the solid medium agar Sabouraud. As a control, fungal cultures were cultured in the absence of peptide.
The fungal suspension was put in contact for two hours with different concentrations of the peptide at the temperature of 37° C. After incubation, 20 μl were drawn from the wells of each dilution and seeded on the solid medium agar Sabouraud. The inoculum was evenly distributed on the agarized medium by means of a sterile disposable loop. After incubation for 24 h at the temperature of 37° C., counting of the fungal colonies (CFU) was performed.

P. aeruginosa ATCC 27853 = type: cell-based, Pseudomonas aeruginosa; conditions: ATCC 27853, 2 h
Description: as §1, with “concentration” for “concentration comprised”, “phosphate buffer 10 mM supplemented with 125 or 250 mM NaCl” for “liquid growth medium”, “27853.” for “27853, Stenotrophomonas maltophilia ATCC 13637.”, “control, the” for “control,”
The bacterial suspension was put in contact for two hours with different concentrations of the peptide at the temperature of 37° C. After incubation, 20 μl were drawn from the wells of each dilution and seeded on the solid medium agar McConkey for Gram-negative bacteria and Columbia agar supplemented with 5% bovine red blood cells for Gram-positive bacteria. The inoculum was evenly distributed on the agarized medium by means of a sterile disposable loop. After incubation for 24 h at the temperature of 37° C., counting of the colony forming units (CFU) was performed.
In table 6A, the antimicrobial activity against E. coli ATCC 25922, Pseudomonas aeruginosa ATCC 27853 in the presence of […] NaCl is reported.

## CC[C@H](C)[C@@H]1NC(=O)[C@H](CCCCN)NC(=O)[C@H](C)NC(=O)[C@@H](NC(=O)[C@H](CCCCN)NC(=O)[C@@H](N)Cc2c[nH]cn2)CSSC[C@@H](C(=O)N[C@@H](C)C(=O)O)NC(=O)[C@H](Cc2ccc(O)cc2)NC(=O)[C@H](CCCCN)NC(=O)[C@H](C(C)C)NC(=O)[C@H](Cc2c[nH]cn2)NC(=O)[C@H](C(C)C)NC(=O)CNC(=O)[C@H](CCCNC(=N)N)NC(=O)[C@H](Cc2c[nH]c3ccccc23)NC(=O)[C@H](CCCCN)NC1=O (relative stereo) [Peptide P2041, HIS*LYS*CYS*ALA*LYS*ILE*LYS*TRP*ARG*GLY*VAL*HIS*VAL*LYS*TYR*CYS*ALA]
[1]
  LD90 S. maltophilia ATCC 13637: 2.67 µM
[2]
  LD90 Malassezia pachydermatis: 0.85 µM
P. aeruginosa ATCC 27853; 12.5 μg/ml
  Antimicrobial activity (percentage of CFU growth inhibition) P. aeruginosa: 100%
P. aeruginosa ATCC 27853; 100 μg/ml
  Antimicrobial activity (percentage of CFU growth inhibition) P. aeruginosa: 100%
